In ChEMBL document CHEMBL3885881, “DrugMatrix”:

Species on record: Rattus norvegicus
Assay: DrugMatrix - Regimen: Daily Repeat
Format: toxicity, organism-based, Sprague-Dawley
Parameters: regimen Daily Repeat, gender Male, age 6-8 weeks
Details: in vivo, po, route oral GAVAGE, […]; for ABSOLUTE BASOPHIL / ABSOLUTE EOSINOPHIL / ABSOLUTE LYMPHOCYTE / ABSOLUTE MONOCYTE / ABSOLUTE SEGMENTED NEUTROPHIL / BASOPHIL / EOSINOPHIL / ERYTHROCYTE COUNT / HEMATOCRIT / HEMOGLOBIN / LEUKOCYTE COUNT / LYMPHOCYTE / MEAN CORPUSCULAR HEMOGLOBIN / MEAN CORPUSCULAR HEMOGLOBIN CONCENTRATION / MEAN CORPUSCULAR VOLUME / MONOCYTE / NEUTROPHIL / NUCLEATED RED BLOOD CELLS / PLATELET COUNT: tissue Blood; for ALANINE AMINOTRANSFERASE / ALBUMIN / ALKALINE PHOSPHATASE / ASPARTATE AMINOTRANSFERASE / BLOOD UREA NITROGEN / CARBON DIOXIDE / CHLORIDE / CHOLESTEROL / CREATINE PHOSPHOKINASE / CREATININE / GLUCOSE / LACTATE DEHYDROGENASE / LIPASE / PHOSPHORUS / POTASSIUM / SODIUM / TOTAL BILIRUBIN / TOTAL PROTEIN: tissue Plasma
[1] = 20 mg/kg, 72 h, dose level Low, time 3 day
[2] = 20 mg/kg, 120 h, dose level Low, time 5 day
[3] = 210 mg/kg, 72 h, dose level High, time 3 day
[4] = 210 mg/kg, 120 h, dose level High, time 5 day

## CN[C@H]1CC[C@@H](c2ccc(Cl)c(Cl)c2)c2ccccc21 [SERTRALINE]
[1]
  ABSOLUTE BASOPHIL: 0 CELLS/uL
  ABSOLUTE EOSINOPHIL: 28.33 CELLS/uL
  ABSOLUTE LYMPHOCYTE: 10624.33 CELLS/uL
  ABSOLUTE MONOCYTE: 86.67 CELLS/uL
  ABSOLUTE SEGMENTED NEUTROPHIL: 1294 CELLS/uL
  BASOPHIL: 0%
  EOSINOPHIL: 0.33%
  ERYTHROCYTE COUNT: 5.85 x10E6/uL
  HEMATOCRIT: 36.57%
  HEMOGLOBIN: 14.27 G/DL
  LEUKOCYTE COUNT: 12.03 x10E3/uL
  LYMPHOCYTE: 87.67%
  MEAN CORPUSCULAR HEMOGLOBIN: 24.37 pg
  MEAN CORPUSCULAR HEMOGLOBIN CONCENTRATION: 39.03 G/DL
  MEAN CORPUSCULAR VOLUME: 62.47 fL
  MONOCYTE: 0.67%
  NEUTROPHIL: 11.33%
  NUCLEATED RED BLOOD CELLS: 0 /100WBC
  PLATELET COUNT: 1161.67 x10E3/uL
  ALANINE AMINOTRANSFERASE: 70.33 u/L
  ALBUMIN: 4.23 G/DL
  ALKALINE PHOSPHATASE: 384.33 u/L
  ASPARTATE AMINOTRANSFERASE: 83.33 u/L
  BLOOD UREA NITROGEN: 14 mg/dL
  CARBON DIOXIDE: 29.67 mmol/L
  CHLORIDE: 103 MEQ/L
  CHOLESTEROL: 79 mg/dL
  CREATINE PHOSPHOKINASE: 163 u/L
  CREATININE: 0.23 mg/dL
  GLUCOSE: 158 mg/dL
  LACTATE DEHYDROGENASE: 155 u/L
  LIPASE: 11 u/L
  PHOSPHORUS: 12.33 mg/dL
  POTASSIUM: 6.97 MEQ/L
  SODIUM: 147.8 MEQ/L
  TOTAL BILIRUBIN: 0.17 mg/dL
  TOTAL PROTEIN: 5.57 G/DL
[2]
  ABSOLUTE BASOPHIL: 0 CELLS/uL
  ABSOLUTE EOSINOPHIL: 46.67 CELLS/uL
  ABSOLUTE LYMPHOCYTE: 12898.33 CELLS/uL
  ABSOLUTE MONOCYTE: 0 CELLS/uL
  ABSOLUTE SEGMENTED NEUTROPHIL: 955 CELLS/uL
  BASOPHIL: 0%
  EOSINOPHIL: 0.33%
  ERYTHROCYTE COUNT: 5.71 x10E6/uL
  HEMATOCRIT: 34.57%
  HEMOGLOBIN: 13.57 G/DL
  LEUKOCYTE COUNT: 13.9 x10E3/uL
  LYMPHOCYTE: 92.33%
  MEAN CORPUSCULAR HEMOGLOBIN: 23.83 pg
  MEAN CORPUSCULAR HEMOGLOBIN CONCENTRATION: 39.27 G/DL
  MEAN CORPUSCULAR VOLUME: 60.73 fL
  MONOCYTE: 0%
  NEUTROPHIL: 7.33%
  NUCLEATED RED BLOOD CELLS: 0 /100WBC
  PLATELET COUNT: 913 x10E3/uL
  ALANINE AMINOTRANSFERASE: 60.33 u/L
  ALBUMIN: 4.27 G/DL
  ALKALINE PHOSPHATASE: 427 u/L
  ASPARTATE AMINOTRANSFERASE: 85 u/L
  BLOOD UREA NITROGEN: 13.67 mg/dL
  CARBON DIOXIDE: 25.33 mmol/L
  CHLORIDE: 103.33 MEQ/L
  CHOLESTEROL: 77.67 mg/dL
  CREATINE PHOSPHOKINASE: 211 u/L
  CREATININE: 0.18 mg/dL
  GLUCOSE: 164.33 mg/dL
  LACTATE DEHYDROGENASE: 121.33 u/L
  LIPASE: 10.33 u/L
  PHOSPHORUS: 12.77 mg/dL
  POTASSIUM: 7.01 MEQ/L
  SODIUM: 147.5 MEQ/L
  TOTAL BILIRUBIN: 0.2 mg/dL
  TOTAL PROTEIN: 5.9 G/DL
[3]
  ABSOLUTE BASOPHIL: 0 CELLS/uL
  ABSOLUTE EOSINOPHIL: 0 CELLS/uL
  ABSOLUTE LYMPHOCYTE: 11258 CELLS/uL
  ABSOLUTE MONOCYTE: 82.33 CELLS/uL
  ABSOLUTE SEGMENTED NEUTROPHIL: 1226.33 CELLS/uL
  BASOPHIL: 0%
  EOSINOPHIL: 0%
  ERYTHROCYTE COUNT: 6.22 x10E6/uL
  HEMATOCRIT: 39.43%
  HEMOGLOBIN: 15.5 G/DL
  LEUKOCYTE COUNT: 12.57 x10E3/uL
  LYMPHOCYTE: 89.67%
  MEAN CORPUSCULAR HEMOGLOBIN: 24.93 pg
  MEAN CORPUSCULAR HEMOGLOBIN CONCENTRATION: 39.33 G/DL
  MEAN CORPUSCULAR VOLUME: 63.33 fL
  MONOCYTE: 0.67%
  NEUTROPHIL: 9.67%
  NUCLEATED RED BLOOD CELLS: 0 /100WBC
  PLATELET COUNT: 1225 x10E3/uL
  ALANINE AMINOTRANSFERASE: 53.67 u/L
  ALBUMIN: 4.33 G/DL
  ALKALINE PHOSPHATASE: 460.67 u/L
  ASPARTATE AMINOTRANSFERASE: 112 u/L
  BLOOD UREA NITROGEN: 16 mg/dL
  CARBON DIOXIDE: 28.33 mmol/L
  CHLORIDE: 101.33 MEQ/L
  CHOLESTEROL: 55.33 mg/dL
  CREATINE PHOSPHOKINASE: 286.67 u/L
  CREATININE: 0.22 mg/dL
  GLUCOSE: 117.33 mg/dL
  LACTATE DEHYDROGENASE: 163.33 u/L
  LIPASE: 10.33 u/L
  PHOSPHORUS: 11.53 mg/dL
  POTASSIUM: 6.21 MEQ/L
  SODIUM: 146.43 MEQ/L
  TOTAL BILIRUBIN: 0.1 mg/dL
  TOTAL PROTEIN: 5.97 G/DL
[4]
  ABSOLUTE BASOPHIL: 0 CELLS/uL
  ABSOLUTE EOSINOPHIL: 207 CELLS/uL
  ABSOLUTE LYMPHOCYTE: 18574.33 CELLS/uL
  ABSOLUTE MONOCYTE: 70.33 CELLS/uL
  ABSOLUTE SEGMENTED NEUTROPHIL: 1848.33 CELLS/uL
  BASOPHIL: 0%
  EOSINOPHIL: 1%
  ERYTHROCYTE COUNT: 6.11 x10E6/uL
  HEMATOCRIT: 37.3%
  HEMOGLOBIN: 14.97 G/DL
  LEUKOCYTE COUNT: 20.7 x10E3/uL
  LYMPHOCYTE: 89.67%
  MEAN CORPUSCULAR HEMOGLOBIN: 24.53 pg
  MEAN CORPUSCULAR HEMOGLOBIN CONCENTRATION: 40.13 G/DL
  MEAN CORPUSCULAR VOLUME: 61.1 fL
  MONOCYTE: 0.33%
  NEUTROPHIL: 9%
  NUCLEATED RED BLOOD CELLS: 0 /100WBC
  PLATELET COUNT: 1278.33 x10E3/uL
  ALANINE AMINOTRANSFERASE: 67 u/L
  ALBUMIN: 4.07 G/DL
  ALKALINE PHOSPHATASE: 368.33 u/L
  ASPARTATE AMINOTRANSFERASE: 101.67 u/L
  BLOOD UREA NITROGEN: 18 mg/dL
  CARBON DIOXIDE: 26 mmol/L
  CHLORIDE: 102.67 MEQ/L
  CHOLESTEROL: 74 mg/dL
  CREATINE PHOSPHOKINASE: 255.33 u/L
  CREATININE: 0.23 mg/dL
  GLUCOSE: 153 mg/dL
  LACTATE DEHYDROGENASE: 287.33 u/L
  LIPASE: 10 u/L
  PHOSPHORUS: 12.3 mg/dL
  POTASSIUM: 6.87 MEQ/L
  SODIUM: 146.47 MEQ/L
  TOTAL BILIRUBIN: 0.13 mg/dL
  TOTAL PROTEIN: 5.9 G/DL
